According to patent US10040781B2, “Tank-binding kinase inhibitor compounds” (Gilead Sciences, Inc., priority 2014, dated 2018):

What was measured:
[1] = target: IKKε (Homo sapiens (Human), UniProt Q14164); test: IKKε TR-FRET enzymatic assay; format: biochemical; settings: read-out: IKKe IC50
[2] = target: hJAK2 (Homo sapiens (Human), UniProt O60674); test: hJAK2 LANCE TR-FRET enzymatic assay; format: biochemical; settings: read-out: JAK2 IC50
[3] = target: TBK1 (Homo sapiens (Human), UniProt Q9UHD2); test: TBK1 TR-FRET enzymatic assay;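 further: phosphorylation of a biotinylated Ser/Thr peptide by purified full-length recombinant TBK1, read by TR-FRET after 240 min at 25 °C, IC50 is the geometric mean of at least four runs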
TBK1, sequence (Q9UHD2 whole entry): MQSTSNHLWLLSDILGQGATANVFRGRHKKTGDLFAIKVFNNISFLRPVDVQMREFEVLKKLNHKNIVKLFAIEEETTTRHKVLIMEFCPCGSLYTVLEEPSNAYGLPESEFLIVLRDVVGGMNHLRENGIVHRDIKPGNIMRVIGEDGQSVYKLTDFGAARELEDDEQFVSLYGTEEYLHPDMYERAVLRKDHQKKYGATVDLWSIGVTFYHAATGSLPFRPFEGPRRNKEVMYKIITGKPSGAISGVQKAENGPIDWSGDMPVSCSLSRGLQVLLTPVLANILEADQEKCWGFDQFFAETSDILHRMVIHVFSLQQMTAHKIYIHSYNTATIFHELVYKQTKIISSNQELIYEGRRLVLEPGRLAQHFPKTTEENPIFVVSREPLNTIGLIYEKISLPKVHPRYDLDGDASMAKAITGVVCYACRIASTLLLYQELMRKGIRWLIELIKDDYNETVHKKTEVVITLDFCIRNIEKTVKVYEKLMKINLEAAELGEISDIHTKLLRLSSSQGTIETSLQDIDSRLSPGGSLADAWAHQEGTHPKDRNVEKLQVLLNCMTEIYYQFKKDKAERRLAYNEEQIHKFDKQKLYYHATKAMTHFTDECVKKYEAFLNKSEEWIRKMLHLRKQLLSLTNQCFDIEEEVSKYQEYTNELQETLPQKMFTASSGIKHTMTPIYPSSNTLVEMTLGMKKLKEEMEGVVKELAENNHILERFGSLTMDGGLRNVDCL
Description: Enzymatic activity of IKKε and TBK1 was measured using a homogeneous time resolved fluorescence resonance energy transfer (TR-FRET) assay that monitors enzyme dependent phosphorylation of a biotinylated serine/threonine peptide substrate. […] TBK1 and IKKε were expressed and purified as full length recombinant proteins. Detection reagents for the assay were purchased from Cisbio. […] After an assay reaction time of 240 minutes at 25° C., reactions were terminated with EDTA.
All IC50 values represent geometric mean values of a minimum of four determinations.

hJAK2, sequence (O60674 whole entry): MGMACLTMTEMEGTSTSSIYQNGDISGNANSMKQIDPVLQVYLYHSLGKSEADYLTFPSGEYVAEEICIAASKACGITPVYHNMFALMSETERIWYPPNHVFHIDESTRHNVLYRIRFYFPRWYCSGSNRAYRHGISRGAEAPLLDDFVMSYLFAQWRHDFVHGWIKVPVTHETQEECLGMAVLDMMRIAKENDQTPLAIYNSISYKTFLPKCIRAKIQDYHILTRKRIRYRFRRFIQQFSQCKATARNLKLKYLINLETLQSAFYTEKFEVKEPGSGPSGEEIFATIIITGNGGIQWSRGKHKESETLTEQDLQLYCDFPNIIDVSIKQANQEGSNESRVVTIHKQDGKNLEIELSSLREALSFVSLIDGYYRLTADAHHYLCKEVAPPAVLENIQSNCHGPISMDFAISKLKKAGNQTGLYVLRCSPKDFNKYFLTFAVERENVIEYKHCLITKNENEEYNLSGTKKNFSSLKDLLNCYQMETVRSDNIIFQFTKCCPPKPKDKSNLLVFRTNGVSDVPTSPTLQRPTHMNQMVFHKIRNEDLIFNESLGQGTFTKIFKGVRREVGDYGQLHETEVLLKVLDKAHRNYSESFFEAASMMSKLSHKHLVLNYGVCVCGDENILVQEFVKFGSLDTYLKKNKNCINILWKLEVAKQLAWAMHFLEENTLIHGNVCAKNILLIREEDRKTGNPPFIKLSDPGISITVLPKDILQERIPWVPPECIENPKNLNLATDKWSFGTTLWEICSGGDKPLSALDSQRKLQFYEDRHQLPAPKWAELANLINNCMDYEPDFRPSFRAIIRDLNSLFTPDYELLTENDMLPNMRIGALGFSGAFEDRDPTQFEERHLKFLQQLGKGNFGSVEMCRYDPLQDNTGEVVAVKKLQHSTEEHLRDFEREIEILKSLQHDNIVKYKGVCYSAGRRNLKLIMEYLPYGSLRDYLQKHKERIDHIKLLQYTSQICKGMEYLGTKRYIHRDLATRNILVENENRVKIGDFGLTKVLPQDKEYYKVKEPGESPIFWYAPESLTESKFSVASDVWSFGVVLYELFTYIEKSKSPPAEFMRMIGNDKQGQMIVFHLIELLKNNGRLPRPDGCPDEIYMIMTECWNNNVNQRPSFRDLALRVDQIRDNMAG
IKKε, sequence (Q14164 whole entry): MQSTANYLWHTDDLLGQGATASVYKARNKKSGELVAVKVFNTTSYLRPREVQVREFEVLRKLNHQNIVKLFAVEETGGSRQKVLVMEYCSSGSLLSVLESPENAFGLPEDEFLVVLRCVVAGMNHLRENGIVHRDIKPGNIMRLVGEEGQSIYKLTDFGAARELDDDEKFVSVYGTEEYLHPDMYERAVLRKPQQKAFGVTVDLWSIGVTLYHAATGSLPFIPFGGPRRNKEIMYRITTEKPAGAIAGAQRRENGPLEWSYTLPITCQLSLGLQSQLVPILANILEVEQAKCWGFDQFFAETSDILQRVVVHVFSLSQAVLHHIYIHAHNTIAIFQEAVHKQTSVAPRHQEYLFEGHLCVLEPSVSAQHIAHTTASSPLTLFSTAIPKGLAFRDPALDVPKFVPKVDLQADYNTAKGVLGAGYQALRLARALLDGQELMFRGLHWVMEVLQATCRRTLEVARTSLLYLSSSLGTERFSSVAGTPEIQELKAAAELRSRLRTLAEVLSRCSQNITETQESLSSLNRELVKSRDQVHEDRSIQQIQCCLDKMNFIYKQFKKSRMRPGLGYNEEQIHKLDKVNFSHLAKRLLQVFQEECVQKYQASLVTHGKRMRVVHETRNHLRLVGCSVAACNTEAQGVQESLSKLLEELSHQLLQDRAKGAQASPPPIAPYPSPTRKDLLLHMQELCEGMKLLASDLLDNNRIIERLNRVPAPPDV

Row | SMILES | IC50 [1] | IC50 [2] | IC50 [3]
1 | CN1CCC(c2ccc(Nc3ncnc(-c4ccc(OC5CCOCC5)c(C#N)c4)n3)cc2)CC1 [Example 76, 5-(4-((4-(1-methylpiperidin-4-yl)phenyl)amino)-1,3,5-triazin-2-yl)-2-((tetrahydro-2H-pyran-4-yl)oxy)benzonitrile] | 3 nM | 575 nM | 1 nM
2 | COc1ccc(Nc2ncnc(-c3ccc(OC4CCOCC4)c(C#N)c3)n2)cn1 [Example 77, 5-(4-((6-methoxypyridin-3-yl)amino)-1,3,5-triazin-2-yl)-2-((tetrahydro-2H-pyran-4-yl)oxy)benzonitrile] | 55 nM | > 1000 nM | 21 nM
3 | COc1cccc(Nc2ncnc(-c3ccc(OC4CCOCC4)c(C#N)c3)n2)c1 [Example 78, 5-(4-((3-methoxyphenyl)amino)-1,3,5-triazin-2-yl)-2-((tetrahydro-2H-pyran-4-yl)oxy)benzonitrile] | 17 nM | > 1000 nM | 6 nM
4 | N#Cc1cc(-c2ncnc(Nc3ccccc3)n2)ccc1OC1CCOCC1 [Example 79, 5-(4-(phenylamino)-1,3,5-triazin-2-yl)-2-((tetrahydro-2H-pyran-4-yl)oxy)benzonitrile] | 19 nM | > 1000 nM | 8 nM
5 | N#Cc1cc(-c2ncnc(Nc3ccc(N4CCOCC4)cc3)n2)ccc1O[C@@H]1CCNC1 [Example 80] | 37 nM | 389 nM | 19 nM
6 | N#Cc1cc(-c2ncnc(Nc3cccc(N4CCOCC4)c3)n2)ccc1O[C@@H]1CCNC1 [Example 82, (R)-5-(4-((3-morpholinophenyl)amino)-1,3,5-triazin-2-yl)-2-(pyrrolidin-3-yloxy)benzonitrile] | 53 nM | 641 nM | 94 nM
7 | CC(C)NC(=O)c1ccc(Nc2ncnc(-c3ccc(O[C@@H]4CCN(C(=O)CO)C4)c(C#N)c3)n2)cc1 [Example 83, (R)-4-((4-(3-cyano-4-((1-(2-hydroxyacetyl)pyrrolidin-3-yl)oxy)phenyl)-1,3,5-triazin-2-yl)amino)-N-isopropylbenzamide] | 14 nM | 604 nM | 8 nM
8 | CC(C)NC(=O)c1ccc(Nc2ncnc(-c3ccc(O[C@@H]4CCNC4)c(C#N)c3)n2)cc1 [Example 84, (R)-4-((4-(3-cyano-4-(pyrrolidin-3-yloxy)phenyl)-1,3,5-triazin-2-yl)amino)-N-isopropylbenzamide] | 166 nM | 805 nM | 72 nM
9 | CN1CCN(c2ccc(Nc3ncnc(-c4ccc(O[C@@H]5CCN(C(=O)CO)C5)c(C#N)c4)n3)cc2)CC1 [Example 86, (R)-2-((1-(2-hydroxyacetyl)pyrrolidin-3-yl)oxy)-5-(4-((4-(4-methylpiperazin-1-yl)phenyl)amino)-1,3,5-triazin-2-yl)benzonitrile] | 4 nM | 459 nM | 8 nM
10 | N#Cc1cc(-c2ncnc(Nc3ccc(N4CCN(C5COC5)CC4)cc3)n2)ccc1F [Example 87, 2-Fluoro-5-(4-((4-(4-(oxetan-3-yl)piperazin-1-yl)phenyl)amino)-1,3,5-triazin-2-yl)benzonitrile] | > 1000 nM | > 1000 nM | 853 nM
11 | N#Cc1cc(-c2ncnc(Nc3ccc(N4CCN(C5COC5)CC4)cc3)n2)ccc1O[C@@H]1CCN(C(=O)CCO)C1 [Example 89, (R)-2-((1-(3-hydroxypropanoyl)pyrrolidin-3-yl)oxy)-5-(4-((4-(4-(oxetan-3-yl)piperazin-1-yl)phenyl)amino)-1,3,5-triazin-2-yl)benzonitrile] | 52 nM | 359 nM | 16 nM
12 | N#CCC(=O)N1CC[C@@H](Oc2ccc(-c3ncnc(Nc4ccc(N5CCN(C6COC6)CC5)cc4)n3)cc2C#N)C1 [Example 90, (R)-2-((1-(2-cyanoacetyl)pyrrolidin-3-yl)oxy)-5-(4-((4-(4-(oxetan-3-yl)piperazin-1-yl)phenyl)amino)-1,3,5-triazin-2-yl)benzonitrile] | 37 nM | 292 nM | 7 nM
13 | N#Cc1cc(-c2ncnc(Nc3ccc(N4CCN(C5COC5)CC4)cc3)n2)ccc1O[C@@H]1CCN(C(=O)C2COC2)C1 [Example 92, (R)-5-(4-((4-(4-(oxetan-3-yl)piperazin-1-yl)phenyl)amino)-1,3,5-triazin-2-yl)-2-((1-(oxetane-3-carbonyl)pyrrolidin-3-yl)oxy)benzonitrile] | 197 nM | > 1000 nM | 45 nM
14 | N#Cc1cc(-c2ncnc(Nc3ccc(N4CCN(C5COC5)CC4)cc3)n2)ccc1O[C@@H]1CCNC1 [Example 93, (R)-5-(4-((4-(4-(oxetan-3-yl)piperazin-1-yl)phenyl)amino)-1,3,5-triazin-2-yl)-2-(pyrrolidin-3-yloxy)benzonitrile] | 120 nM | 961 nM | 30 nM
15 | N#Cc1cc(-c2ncnc(Nc3ccc(N4CCN(C5COC5)CC4)cc3)n2)ccc1O[C@@H]1CCN(C(=O)C2(O)CC2)C1 [Example 94, (R)-2-((1-(1-hydroxycyclopropanecarbonyl)pyrrolidin-3-yl)oxy)-5-(4-((4-(4-(oxetan-3-yl)piperazin-1-yl)phenyl)amino)-1,3,5-triazin-2-yl)benzonitrile] | 367 nM | > 1000 nM | 173 nM
16 | N#Cc1cc(-c2ncnc(Nc3ccc(N4CCN(C5COC5)CC4)cc3)n2)ccc1O[C@@H]1CCN(C=O)C1 [Example 95, (R)-2-((1-formylpyrrolidin-3-yl)oxy)-5-(4-((4-(4-(oxetan-3-yl)piperazin-1-yl)phenyl)amino)-1,3,5-triazin-2-yl)benzonitrile] | 21 nM | 377 nM | 7 nM
17 | N#Cc1cc(-c2ncnc(Nc3ccc(N4CCN(C5COC5)CC4)cc3)n2)ccc1O[C@@H]1CCN(C(=O)C(F)F)C1 [Example 96, (R)-2-((1-(2,2-difluoroacetyl)pyrrolidin-3-yl)oxy)-5-(4-((4-(4-(oxetan-3-yl)piperazin-1-yl)phenyl)amino)-1,3,5-triazin-2-yl)benzonitrile] | 91 nM | 560 nM | 21 nM
18 | N#Cc1cc(-c2ncnc(Nc3ccc(N4CCN(C5COC5)CC4)cc3)n2)ccc1OC1CCCN(C(=O)CO)CC1 (stereo not drawn) [Example 97, 2-((1-(2-hydroxyacetyl)azepan-4-yl)oxy)-5-(4-((4-(4-(oxetan-3-yl)piperazin-1-yl)phenyl)amino)-1,3,5-triazin-2-yl)benzonitrile] | 22 nM | 241 nM | 11 nM
19 | N#Cc1cc(-c2ncnc(Nc3ccc(N4CCN(C5COC5)CC4)cc3)n2)ccc1OC1CN(C(=O)CO)CC1(F)F (stereo not drawn) [Example 98, 2-((4,4-difluoro-1-(2-hydroxyacetyl)pyrrolidin-3-yl)oxy)-5-(4-((4-(4-(oxetan-3-yl)piperazin-1-yl)phenyl)amino)-1,3,5-triazin-2-yl)benzonitrile] | 14 nM | 119 nM | 5 nM
20 | C[C@@H]1C[C@@H](Oc2ccc(-c3ncnc(Nc4ccc(N5CCN(C6COC6)CC5)cc4)n3)cc2C#N)CN1C(=O)CO [Example 99, 2-(((3R,5R)-1-(2-hydroxyacetyl)-5-methylpyrrolidin-3-yl)oxy)-5-(4-((4-(4-(oxetan-3-yl)piperazin-1-yl)phenyl)amino)-1,3,5-triazin-2-yl)benzonitrile] | 193 nM | 440 nM | 77 nM
